Experimental data published in patent US20240246992A1, “MACROCYCLIC LRRK2 KINASE INHIBITORS” (LES LABORATOIRES SERVIER, priority 2021, published 2024).

Target: human recombinant LRRK2 protein (Homo sapiens, UniProt Q5S007)
Experiment: LRRK2 kinase activity assay (ADP-Glo, LRRKtide peptide)
Type: biochemical
Details: human recombinant LRRK2 wt, LRRKtide peptide and ATP, 1 h at 37° C.
Description: The inhibition of LRRK2 kinase was assessed using human recombinant LRRK2 protein in an in vitro peptide-based kinase assay.
LRRK2 Kinase reactions were carried out in 384-well white polystyrene plates in a final volume of 6 μl using ADP-Glo™ Kinase Assay kit (Promega Corp.). Compound and substrates (LRRKtide peptide and ATP) in assay buffer were first dispensed in wells. Kinase reaction was then started by the addition of human recombinant LRRK2 protein. After 1 h-incubation at 37° C., the enzymatic reactions was stopped by the addition of 6 μl of ADP-Glo Reagent-1 and an additional 40-minutes incubation at 23° C. (residual ATP depletion). A final 30-minutes incubation after 12 μL reagent-2 addition (ADP to ATP conversion and luciferin/luciferase reaction) was performed before luminescent signal acquisition (EnVision™ multimode plate reader—PerkinElmer, Inc.). Data from 10 individual concentrations of tested compounds (N=2) were fitted (XLfit™—ID Business Solutions Ltd) to deliver IC50s (compound concentration leading to 50% inhibition of reference enzymatic activity).
The compounds are dissolved to 5 mM in DMSO. When needed, solutions are sonicated in a bath sonicator.
Table 2 provides the pIC50 values of the compounds according to the invention, obtained using the above mentioned kinase assay. Activities are represented as +++, ++ and +, having the following meanings: • «+++» means an IC50<10 nM • «++» means an IC50<100 nM • «+» means an IC50<1 μM • «−» means an IC50>1 μM

Chain of human recombinant LRRK2 protein (Q5S007 whole entry): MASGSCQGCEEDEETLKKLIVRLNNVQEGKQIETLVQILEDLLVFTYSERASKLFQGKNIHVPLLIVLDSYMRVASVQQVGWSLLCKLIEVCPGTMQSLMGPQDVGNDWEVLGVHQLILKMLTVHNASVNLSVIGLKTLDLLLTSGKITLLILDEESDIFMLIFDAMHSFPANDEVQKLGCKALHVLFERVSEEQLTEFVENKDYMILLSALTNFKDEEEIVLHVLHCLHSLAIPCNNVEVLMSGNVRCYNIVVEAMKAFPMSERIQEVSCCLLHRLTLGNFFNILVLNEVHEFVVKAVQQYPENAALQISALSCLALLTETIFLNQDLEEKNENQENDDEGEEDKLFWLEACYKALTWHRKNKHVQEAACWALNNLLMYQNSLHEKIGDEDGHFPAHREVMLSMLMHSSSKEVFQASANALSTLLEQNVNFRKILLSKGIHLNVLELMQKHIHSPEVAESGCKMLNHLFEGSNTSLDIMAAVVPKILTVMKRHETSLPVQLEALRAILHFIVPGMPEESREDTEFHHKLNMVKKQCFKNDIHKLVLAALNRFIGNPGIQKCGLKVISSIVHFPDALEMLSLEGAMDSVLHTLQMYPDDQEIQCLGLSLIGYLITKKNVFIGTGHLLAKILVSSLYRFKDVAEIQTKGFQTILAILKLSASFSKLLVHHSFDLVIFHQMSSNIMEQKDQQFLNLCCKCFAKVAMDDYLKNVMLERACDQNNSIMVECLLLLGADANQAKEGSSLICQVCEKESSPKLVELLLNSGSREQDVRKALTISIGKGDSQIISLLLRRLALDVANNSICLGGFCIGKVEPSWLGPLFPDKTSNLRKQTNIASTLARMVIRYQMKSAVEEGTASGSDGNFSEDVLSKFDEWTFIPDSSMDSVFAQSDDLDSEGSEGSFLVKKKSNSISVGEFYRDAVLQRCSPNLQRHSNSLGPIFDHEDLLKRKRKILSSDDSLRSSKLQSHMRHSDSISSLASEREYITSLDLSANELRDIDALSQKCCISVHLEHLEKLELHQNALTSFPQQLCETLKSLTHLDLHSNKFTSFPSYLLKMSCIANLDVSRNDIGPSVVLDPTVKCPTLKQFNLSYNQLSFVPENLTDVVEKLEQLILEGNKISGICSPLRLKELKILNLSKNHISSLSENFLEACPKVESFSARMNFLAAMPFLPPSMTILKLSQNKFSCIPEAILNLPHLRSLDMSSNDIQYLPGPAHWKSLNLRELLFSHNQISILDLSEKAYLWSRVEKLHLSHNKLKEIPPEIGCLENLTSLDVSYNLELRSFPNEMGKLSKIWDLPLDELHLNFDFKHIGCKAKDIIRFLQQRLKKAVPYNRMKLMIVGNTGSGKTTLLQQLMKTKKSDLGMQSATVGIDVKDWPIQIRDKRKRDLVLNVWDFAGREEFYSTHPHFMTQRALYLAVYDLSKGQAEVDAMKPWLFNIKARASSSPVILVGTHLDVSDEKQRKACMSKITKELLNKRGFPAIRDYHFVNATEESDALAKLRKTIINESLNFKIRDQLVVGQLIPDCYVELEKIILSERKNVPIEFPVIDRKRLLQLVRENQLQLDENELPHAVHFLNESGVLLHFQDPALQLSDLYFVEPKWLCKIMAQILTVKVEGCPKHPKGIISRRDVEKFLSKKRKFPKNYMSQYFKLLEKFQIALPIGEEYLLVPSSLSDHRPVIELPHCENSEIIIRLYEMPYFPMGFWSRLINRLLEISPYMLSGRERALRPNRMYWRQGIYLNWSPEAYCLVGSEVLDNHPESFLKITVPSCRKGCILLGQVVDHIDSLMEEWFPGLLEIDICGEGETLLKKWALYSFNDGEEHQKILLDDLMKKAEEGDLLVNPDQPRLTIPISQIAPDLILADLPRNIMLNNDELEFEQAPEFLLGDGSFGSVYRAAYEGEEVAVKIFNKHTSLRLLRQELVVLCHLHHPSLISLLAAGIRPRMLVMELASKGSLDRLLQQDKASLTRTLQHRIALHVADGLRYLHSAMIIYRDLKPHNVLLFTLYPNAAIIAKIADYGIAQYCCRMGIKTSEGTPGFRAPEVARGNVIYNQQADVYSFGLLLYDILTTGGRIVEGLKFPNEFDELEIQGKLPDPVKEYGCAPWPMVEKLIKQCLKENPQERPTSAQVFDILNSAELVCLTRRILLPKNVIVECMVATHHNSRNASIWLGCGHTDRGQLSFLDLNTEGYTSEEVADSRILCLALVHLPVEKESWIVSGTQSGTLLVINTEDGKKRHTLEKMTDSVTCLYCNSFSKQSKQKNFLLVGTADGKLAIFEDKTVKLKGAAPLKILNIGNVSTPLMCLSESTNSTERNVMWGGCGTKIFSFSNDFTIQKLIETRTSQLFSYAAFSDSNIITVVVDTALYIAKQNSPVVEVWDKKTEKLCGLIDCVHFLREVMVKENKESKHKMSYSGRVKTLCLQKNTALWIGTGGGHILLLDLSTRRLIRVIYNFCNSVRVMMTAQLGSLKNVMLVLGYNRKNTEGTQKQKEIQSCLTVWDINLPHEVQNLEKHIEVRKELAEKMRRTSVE

**Q.** For C[C@H]1CCOCCOc2nccc(n2)-c2n[nH]c3ccc(cc23)O1 [Example 16, (13S)-13-methyl-7,10,14-trioxa-5,19,20,23-tetraazatetracyclo[13.5.2.1^2,6. 0^18,21]tricosa-1(20),2(23),3,5,15(22),16,18(21)-heptaene], which IC50 is on record?
**A.** Its IC50 is < 10 nM.

**Q.** With C[C@@H]1CCOC[C@@H](C)Oc2ccc3[nH]nc(c3c2)-c2cncc(c2)O1 [Example 17, (8R,13R)-8,13-dimethyl-7,11,14-trioxa-4,19,20-triazatetracyclo[13.5.2.1^2,6. 0^18,21]tricosa-1(20),2(23),3,5,15(22),16,18(21)-heptaene] as the molecule, how does the IC50 read?
**A.** The IC50 was < 10 nM.

**Q.** C[C@@H]1CCOC[C@H](C)Oc2ccc3[nH]nc(c3c2)-c2cncc(c2)O1 [Example 18, (8R,13S)-8,13-dimethyl-7,11,14-trioxa-4,19,20-triazatetracyclo[13.5.2.1^2,6. 0^18,21]tricosa-1(20),2(23),3,5,15(22),16,18(21)-heptaene] was tested. Which IC50 did it give?
**A.** Its IC50 is < 10 nM.

**Q.** For C[C@H]1COCCCOc2nc(cc(N3CCCC3)n2)-c2n[nH]c3ccc(cc23)O1 [Example 19, (13S)-13-methyl-4-(pyrrolidin-1-yl)-7,11,14-trioxa-5,19,20,23-tetraazatetra cyclo[13.5.2.1^2,6.0^18,21]tricosa-1(20),2(23),3,5,15(22),16,18(21)heptaene], which IC50 is on record?
**A.** The IC50 was < 10 nM.

**Q.** For C[C@H]1CCOC[C@H](C)Oc2cncc(c2)-c2n[nH]c3ccc(cc23)O1 [Example 20, (8S,13S)-8,13-dimethyl-7,10,14-trioxa-4,19,20-triazatetracyclo[13.5.2.1^2,6. 0^18,21]tricosa-1(20),2(23),3,5,15(22),16,18(21)-heptaene], which IC50 is on record?
**A.** Its IC50 is < 100 nM.

**Q.** How did the IC50 turn out when C[C@@H]1COCC[C@H](C)Oc2ccc3[nH]nc(c3c2)-c2cncc(c2)O1 [Example 21, (8R,13S)-8,13-dimethyl-7,10,14-trioxa-4,19,20-triazatetracyclo[13.5.2.1^2,6.0^18,21]tricosa-1(20),2(23),3,5,15(22),16,18(21)-heptaene] was run?
**A.** The IC50 was < 10 nM.

**Q.** Which IC50 does the source give for C[C@@H]1CCOC[C@H](C)Oc2cncc(c2)-c2n[nH]c3ccc(cc23)O1 [Example 22, (8S,13R)-8,13-dimethyl-7,10,14-trioxa-4,19,20-triazatetracyclo[13.5.2.1^2,6.0^18,21]tricosa-1(20),2(23),3,5,15(22),16,18(21)-heptaene] here?
**A.** The IC50 was < 10 nM.

**Q.** C[C@@H]1CCOC[C@@H](C)Oc2cncc(c2)-c2n[nH]c3ccc(cc23)O1 [Example 23, (8R,13R)-8,13-dimethyl-7,10,14-trioxa-4,19,20-triazatetracyclo[13.5.2.1^2,6.0^18,21]tricosa-1(20),2(23),3,5,15(22),16,18(21)-heptaene] was tested. Which IC50 did it give?
**A.** Its IC50 is < 10 nM.

**Q.** For C[C@H]1COCCOCCn2cc(cn2)-c2n[nH]c3ccc(cc23)O1 [Example 24, (13S)-13-methyl-8,11,14-trioxa-4,5,19,20-tetraazatetracyclo[13.5.2.1^2,5.0^18,21]tricosa-1(20),2(23),3,15(22),16,18(21)-hexaene], which IC50 is on record?
**A.** Its IC50 is < 10 nM.

**Q.** Which IC50 does the source give for C[C@@H]1CCOCC[C@H](C)Oc2ccc3[nH]nc(c3c2)-c2cnn1c2 [Example 25, (6R,12S)-6,12-dimethyl-9,13-dioxa-4,5,18,19-tetraazatetracyclo[12.5.2.1^2,5.0^17,20]docosa-1(19),2(22),3,14(21),15,17(20)-hexaene] here?
**A.** The IC50 was < 100 nM.

**Q.** With C[C@H]1COCCCOc2nccc(n2)-c2n[nH]c3ccc(cc23)O1 [Example 26, (13S)-13-methyl-7,11,14-trioxa-5,19,20,23-tetraazatetracyclo[13.5.2.1^2,6.0^18,21]tricosa-1(20),2(23),3,5,15(22),16,18(21)-heptaene] as the molecule, how does the IC50 read?
**A.** The IC50 was < 10 nM.

**Q.** How did the IC50 turn out when COC1CN(c2cc3nc(n2)OCCCOC[C@H](C)Oc2ccc4[nH]nc-3c4c2)C1 [Example 27, (13S)-4-(3-methoxyazetidin-1-yl)-13-methyl-7,11,14-trioxa-5,19,20,23-tetra azatetracyclo[13.5.2.1^2,6.0^18,21]tricosa-1(20),2(23),3,5,15(22),16,18(21) heptaene] was run?
**A.** The IC50 was < 10 nM.

**Q.** With C[C@H]1CCOCCOc2cccc(n2)-c2n[nH]c3ccc(cc23)O1 [Example 28, (13S)-13-methyl-7,10,14-trioxa-19,20,23-triazatetracyclo [13.5.2.1^2,6.0^18,21] tricosa-1(20),2(23),3,5,15(22),16,18(21)-heptaene] as the molecule, how does the IC50 read?
**A.** Its IC50 is < 10 nM.

**Q.** For Cc1cc2nc(n1)OCCCOC[C@H](C)Oc1ccc3[nH]nc-2c3c1 [Example 29, (13S)-4,13-dimethyl-7,11,14-trioxa-5,19,20,23-tetraazatetracyclo[13.5.2.1^2,6.0^18,21]tricosa-1(20),2(23),3,5,15(22),16,18(21)-heptaene], which IC50 is on record?
**A.** The IC50 was < 10 nM.

**Q.** With C[C@H]1CCOCCOc2nccc(n2)-c2n[nH]c3ccc(cc23)N1 [Example 30, (13S)-13-methyl-7,10-dioxa-5,14,19,20,23-pentaazatetracyclo[13.5.2.1^2,6.0^18,21]tricosa-1(20),2(23),3,5,15(22),16,18(21)-heptaene] as the molecule, how does the IC50 read?
**A.** Its IC50 is < 100 nM.

**Q.** How did the IC50 turn out when CC1(C)COCCCOc2ccc3[nH]nc(c3c2)-c2cnn(c2)C1 [Example 31, 7,7-dimethyl-9,13-dioxa-4,5,18,19-tetraazatetracyclo[12.5.2.1^2,5.0^17,20] docosa-1(19),2(22),3,14(21),15,17(20)-hexaene] was run?
**A.** The IC50 was < 10 nM.

**Q.** How did the IC50 turn out when C[C@H]1CCOCCCn2cc(cn2)-c2n[nH]c3ccc(cc23)O1 [Example 32, (12S)-12-methyl-9,13-dioxa-4,5,18,19-tetraazatetracyclo[12.5.2.1^2,5.0^17,20] docosa-1(19),2(22),3,14(21),15,17(20)-hexaene] was run?
**A.** The IC50 was < 10 nM.

**Q.** C[C@@H]1COCC[C@H](C)Oc2ccc3[nH]nc(c3c2)-c2cccc(n2)O1 [Example 33, (8R,13S)-8,13-dimethyl-7,10,14-trioxa-19,20,23-triazatetracyclo[13.5.2.1^2,6.0^18,21]tricosa-1(20),2(23),3,5,15(22),16,18(21)-heptaene] was tested. Which IC50 did it give?
**A.** Its IC50 is < 100 nM.

**Q.** COC1CN(c2cc3nc(n2)OCCOCC[C@H](C)Nc2ccc4[nH]nc-3c4c2)C1 [Example 34, (13S)-4-(3-methoxyazetidin-1-yl)-13-methyl-7,10-dioxa-5,14,19,20,23-pentaazatetracyclo[13.5.2.1^2,6.0^18,21]tricosa-1(20),2,4,6(23),15(22),16, 18(21)-heptaene] was tested. Which IC50 did it give?
**A.** The IC50 was < 10 nM.

**Q.** With C[C@@H]1CCOCC[C@@H](C)n2cc(cn2)-c2n[nH]c3ccc(cc23)O1 [Example 35, (6R,12R)-6,12-dimethyl-9,13-dioxa-4,5,18,19-tetraazatetracyclo[12.5.2.1^2,5.0^17,20]docosa-1(19),2(22),3,14(21),15,17(20)-hexaene] as the molecule, how does the IC50 read?
**A.** The IC50 was < 10 nM.

**Q.** C[C@@H]1CCOCC[C@H](C)n2cc(cn2)-c2n[nH]c3ccc(cc23)O1 [Example 36, (6S,12R)-6,12-dimethyl-9,13-dioxa-4,5,18,19-tetraazatetracyclo[12.5.2.1^2,5.0^17,20]docosa-1(19),2(22),3,14(21),15,17(20)-hexaene] was tested. Which IC50 did it give?
**A.** Its IC50 is < 10 nM.

**Q.** Which IC50 does the source give for C[C@H]1CCn2cc(cn2)-c2n[nH]c3ccc(cc23)OCCCO1 [Example 37, (8S)-8-Methyl-9,13-dioxa-4,5,18,19-tetraazatetracyclo[12.5.2.1^2,5.0^17,20] docosa-1(19),2(22),3,14(21),15,17(20)-hexaene] here?
**A.** The IC50 was < 10 nM.

**Q.** C[C@H]1CCOCC[C@H](C)n2cc(cn2)-c2n[nH]c3ccc(cc23)O1 [Example 38, (6S,12S)-6,12-dimethyl-9,13-dioxa-4,5,18,19-tetraazatetracyclo [12.5.2.1^2,5.0^17,20]docosa-1(19),2(22),3,14(21),15,17(20)-hexaene] was tested. Which IC50 did it give?
**A.** The IC50 was < 10 nM.

**Q.** With C[C@H]1CCOCCOc2nc(cc(N3CCCC3)n2)-c2n[nH]c3ccc(cc23)N1 [Example 39, (13S)-13-methyl-4-(pyrrolidin-1-yl)-7,10-dioxa-5,14,19,20,23-pentaazatetra cyclo[13.5.2.1^2,6.0^18,21]tricosa-1(20),2(23),3,5,15(22),16,18(21)-heptaene] as the molecule, how does the IC50 read?
**A.** Its IC50 is < 10 nM.

**Q.** With Cc1cc2nc(n1)OCCOCC[C@H](C)Nc1ccc3[nH]nc-2c3c1 [Example 40, (13S)-4,13-dimethyl-7,10-dioxa-5,14,19,20,23-pentaazatetracyclo[13.5.2.1^2,6.0^18,21]tricosa-1(20),2(23),3,5,15(22),16,18(21)-heptaene] as the molecule, how does the IC50 read?
**A.** The IC50 was < 10 nM.

**Q.** With C[C@@H]1CCOCCOc2cncc(n2)-c2n[nH]c3ccc(cc23)O1 [Example 41, (13R)-13-methyl-7,10,14-trioxa-4,19,20,23-tetraazatetracyclo[13.5.2.1^2,6.0^18,21]tricosa-1(20),2(23),3,5,15(22),16,18(21)-heptaene] as the molecule, how does the IC50 read?
**A.** Its IC50 is < 10 nM.

**Q.** With C[C@@H]1CCOCCCn2cc(cn2)-c2n[nH]c3ccc(cc23)O1 [Example 42, (12R)-12-methyl-9,13-dioxa-4,5,18,19-tetraazatetracyclo [12.5.2.1^2,5.0^17,20]docosa-1(19),2(22),3,14(21),15,17(20)-hexaene] as the molecule, how does the IC50 read?
**A.** Its IC50 is < 10 nM.

**Q.** With C[C@H]1CCOCCCc2cccc(c2)-c2n[nH]c3ccc(cc23)O1 [Example 43, (13S)-13-methyl-10,14-dioxa-19,20-diazatetracyclo[13.5.2.1^2,6.0^18,21]tricosa-1(20),2(23),3,5,15(22),16,18(21)-heptaene] as the molecule, how does the IC50 read?
**A.** Its IC50 is < 10 nM.
